Entries after “also recorded” stand apart in the source; their conditions may differ.
Tests used:
Type in all cases: cell-based, human
TIL586 [1] = test: GM-CSF release by TIL586 co-incubated with peptide-pulsed target cells; design: GM-CSF release: unit not given here; conditions: for GM-CSF release: 586EBV cells pulsed with peptide 1 μg/ml for 90 min, co-incubated with TIL586, TIL586 alone subtracted; for Recognition by TIL586 / stimulation of GM-CSF release (in words): peptide pulsed onto 586EBV B cells (A31+)
Experimental: Transfection and cytokine assays were performed as FIG. 1A and b. 586mel and 397mel were included as positive and negative controls for the reactivity of TIL586. The ORF3P peptide was incubated with 586EBV (A31+) and T2 (non-A31) cells at a concentration of 1 μg/ml for 90 min.
The following chemicals and reagents were purchased from the sources indicated: RPMI 1640, AIM-V media, Lipofectamine, G418 (GIBCO BRL, Gaithersberg, Md.); the eukaryotic expression vector pCR3 (Invitrogen, San Diego, […] containing 120 IU/ml of IL-2. TIL586 was added and incubated for additional 18–24 h, 100 μl of supernatant was collected for GM-CSF assay.

TIL586 [2] = test: Cytotoxic lysis of peptide-pulsed target cells by TIL586, 4-h chromium release assay; conditions: for % Specific lysis (E:T 20:1): 586EBV cells pulsed with peptide 1 μg/ml, TIL586 E:T 20:1, 4-h chromium release; for Sensitization of peptide-pulsed 586EBV B cells for lysis by TIL586 (in words): peptide pulsed onto 586EBV B cells
Experimental: 586EBV B cells were incubated with ORF3P (pep) (—▴—), with an irrelevant peptide (ipep) (—●—) without peptide (—Δ—) and T2 cells pulsed with ORF3P (—∘—) as marked. After incubation, TIL586 was added and mixed with the target cells. Cytolytic activity of TIL586 was measured in a 4 h chromium release assay.
586EBV cells were separately incubated with serial dilutions of ORF3P (pep) (—▴—) or irrelevant peptides (ipep) (—●—) and T2 cells with the ORF3P (peptide (—∘—) for 90 min. The cytolytic activity of TIL586 was evaluated in a 4h […] release assay at an effector: target (E:T) ratio of 40:1.
(§1) Cytolytic assays was done as previously described (Kawakami, Y et al., 1994, Proc. Natl. Acad. Sci. USA 91:6458–62). Briefly, the target cells were labeled with chromium for 90 min. After washing three times, the cells were incubated with peptides at a concentration of 1 μg/ml for 90 min. The cells were washed again, counted, and then mixed with TIL586 at the indicated ratio of effector : targets (E:T). Chromium release was measured after 4 h incubation. The peptides were synthesized by a solid-phase method using a peptide synthesizer (Model AMS 422, Gibson Co., Inc., Worthington, Ohio). Some peptides were purified by HPLC and had greater than 98% in purity. For titration of the ORF3P peptide recognized by TIL586, 586EBV B cells were incubated with various concentrations of the purified ORF3P peptide. Percentage of specific lysis was determined from the equation (A-B)/(C-B)×100 where A is lysis of 586EBV B cells by TIL586 in the presence of a peptide, B is spontaneous release from 586EBV B cells in presence of the same peptide but in the absence of effector cells, and C is the maximum chromium release.

TIL586 [3] = test: GM-CSF release by TIL586 co-incubated with peptide-pulsed target cells
TIL586 [4] = test: Cold target inhibition of lysis of 51Cr-labeled 586mel by TIL586; conditions: TIL586, E:T 20:1, 4 h
Experimental: 586EBV cells pulsed with ORF3P (—▴—), with irrelevant peptide (—Δ—) and T2 cells loaded with ORF3P (—□—) were used as “cold” target cells. After washing, “hot” and “cold” target cells were counted again and mixed at the “cold”/“hot” ratio of 1:1, 5:1, 10:1, and 20:1. TIL586 was added at an effector; “hot” target (E:T) ratio of 20:1. Chromium release was measured after 4 h incubation.
as §1, with “For titration of the ORF3P peptide recognized by TIL586, 586EBV B cells were incubated with various concentrations of the purified ORF3P peptide.” left out, “release. […]” for “release.”

TIL1200 = test: Cold target inhibition of lysis of 51Cr-labeled 624mel by TIL1200; conditions: TIL1200 (gp100, HLA-A2), E:T 30:1, 4 h
Experimental: “Cold” and “hot” target cells were mixed at the indicated ratios. TIL1200 was added at an effector: hot target (E:T) ratio of 30:1. Cytolytic activity of TIL1200 was evaluated in a 4-h ^51Cr release assay.
as §1, with “release. […]” for “release.”

[5] = system: T cell clones from TIL586; test: GM-CSF release by T cell clones generated from the TIL586 cell line; conditions: six T cell clones, GM-CSF assay, 18–24 h
Experimental: FIGS. 6A–6D show recognition of the antigenic peptide T cell clones from the TIL586 cell line. T cell clones were generated from the TIL586 cell line. 586EBV B cells were pulsed with the ORF3P peptide or irrelevant peptide. T cell clone or TIL586 cells were added and coincubated. For 586 mel, 397 mel/A31^+ tumors and melanocyte NHEM680 cells, 1×10^5 cells per well were incubated with 1×10^5 cells clones, TIL586-C1 (FIG. 6A), TIL586-C4 (FIG. 6B) and TIL586-C6 (FIG. 6C) or TIL586 (FIG. 6D) for 18–24 h, respectively. GM-CSF assay was performed as described in FIG. 1B.
To address the question of whether TIL586 recognized a naturally processed peptide which is similar or identical to the ORF3P peptide on the tumor cells, the ability of the ORF3P peptide pulsed 586EBV B cells to inhibit lysis of ^51Cr-labeled 586mel in a cold-target inhibition assay was examined. […] To further test if T cell clones can recognize both the ORF3P peptide pulsed 586EBV B cells and tumor cell lines, T cell clones were generated from the TIL586 cell line by limiting dilution (1 cell/well in 96-well round bottom microplate) and further expanded in culture. […] T cell clones were further expanded in AIM-V medium containing 6000 IU/ml IL-2. […]

[6] = 586EBV cells, TIL586 E:T 40:1, 4 h

Row | Sequence | GM-CSF release (TIL586 [1]) | Recognition by TIL586 / stimulation of GM-CSF release (in words) (TIL586 [1]) | % Specific lysis (E:T 20:1) (TIL586 [2]) | other results
1 | AACDQRVLIVR (listed as Homo sapiens) [synthetic peptide from ORF1 (gp75)] | 250 | very weakly induced GM-CSF release | <10% | Sensitization of target cells for lysis by TIL586 at high peptide concentration (TIL586 [2]; 10 μg/ml of peptide, data not shown): did not sensitize the target cells for lysis; Sensitization of peptide-pulsed 586EBV B cells for lysis by TIL586 (in words) (TIL586 [2]): failed to sensitive peptide-loaded 586EBV B for lysis by TIL586; Peptide concentration needed for weak stimulation of cytokine release from TIL586 (TIL586 [3]; incubated with 586EBV B cells): > 1 µg/mL
2 | ACDQRVLIVR (listed as Homo sapiens) [synthetic peptide from ORF1 (gp75)] | <50 |  | <10% | 
3 | ACDQRVLIVRR (listed as Homo sapiens) [synthetic peptide from ORF1 (gp75)] | <50 |  | <10% | 
4 | AISQDTTVGR (listed as Homo sapiens) [synthetic peptide from ORF1 (gp75)] | <50 |  | <10% | 
5 | CGTCRPGWR (listed as Homo sapiens) [synthetic peptide from ORF1 (gp75)] | <50 |  | <10% | 
6 | DDREVWPLR (listed as Homo sapiens) [synthetic peptide from ORF1 (gp75)] | <50 |  | <10% | 
7 | DQRVLIVRR (listed as Homo sapiens) [synthetic peptide from ORF1 (gp75)] | <50 |  | <10% | 
8 | ISLQRQFLR (listed as Homo sapiens) |  | still recognized by TIL586 at comparable concentrations to that of the wild-type peptide |  | 
9 | IVRRNLLDLSK (listed as Homo sapiens) [synthetic peptide from ORF1 (gp75)] | <50 |  | <10% | 
10 | LSKEEKNHFVR (listed as Homo sapiens) [synthetic peptide from ORF1 (gp75)] | <50 |  | <10% | 
11 | LWDVPSWLER (listed as Homo sapiens) | <50 |  | <10% | 
12 | MALQRQFLR (listed as Homo sapiens) [modified ORF3P, substitution Ser with Ala at position 2] |  | recognized |  | 
13 | MLLQRQFLR (listed as Homo sapiens) [modified ORF3P, anchor residue substitution] |  | did not recognize |  | 
14 | MRLQRQFLR (listed as Homo sapiens) [modified ORF3P, anchor residue substitution] |  | did not recognize |  | 
15 | MSLQRLFLR (listed as Homo sapiens) [modified ORF3P, anchor residue substitution] |  | did not recognize |  | 
16 | MSLQRQFLE (listed as Homo sapiens) [modified ORF3P, anchor residue substitution] |  | did not recognize |  | 
17 | MSLQRQFLK (listed as Homo sapiens) [modified ORF3P, anchor residue substitution] |  | did not recognize |  | 
18 | MSLQRQFLR (listed as Homo sapiens) [ORF3P, antigenic nonamer peptide derived from ORF3 of the gp75 (TRP-1) gene] |  | strongly recognized by TIL586; also recorded: significantly increased |  | Recognition by TIL586 / GM-CSF release, peptide on T2 cells (TIL586 [1]; peptide loaded onto T2 (non-HLA-A31) cells): not when peptide was loaded onto T2 (non-HLA-A31) cells; Peptide concentration at which lytic activity was still detected (TIL586 [2]; [6]): 1 nM; Peptide concentration giving maximal sensitization for lysis (TIL586 [2]; [6]): 100 nM; Lysis by TIL586 of T2 cells pulsed with peptide (TIL586 [2]; T2 (non-A31) cells pulsed with peptide): failed to lyse; Sensitization of peptide-pulsed 586EBV B cells for lysis by TIL586 (in words) (TIL586 [2]): lysed; Inhibition of lysis of 51Cr-labeled 586mel by cold peptide-pulsed 586EBV B cells (TIL586 [4]): Significant inhibition; Inhibition of lysis of 51Cr-labeled 624mel by cold peptide-pulsed 586EBV B cells (TIL1200): did not inhibit; Recognition of peptide-pulsed 586EBV B cells by T cell clones from TIL586 [5]: capable of recognizing; also recorded: recognized by six T cell clones derived from TIL586; Recognition by TIL586 / GM-CSF release, peptide on 1510EBV cells (TIL586 [3]; peptide pulsed onto allogeneic 1510EBV B (A31+) cells): observed only when the peptide was pulsed onto autologous 586EBV B cells and 1510EBV B (A31+) cells; also recorded: significantly increased
19 | MSLQRQFLRT (listed as Homo sapiens) [peptide from ORF3] |  | did not recognize |  | 
20 | SGHNCGTCR (listed as Homo sapiens) [synthetic peptide from ORF1 (gp75)] | <50 |  | <10% | 
21 | SLQRQFLRT (listed as Homo sapiens) [peptide from ORF3] |  | did not recognize |  | 
22 | VWPLRFFNR (listed as Homo sapiens) [synthetic peptide from ORF1 (gp75)] | <50 |  | <10% | 

From patent US7015312B1, “Antibodies to the protein product encoded by ORF3 of the TRP-1 gene and compositions and kits thereof” (The United States of America as represented by the …, priority 1996, dated 2006)
